Test results as given in PMC11601558, “SLC6A19 inhibition facilitates urinary neutral amino acid excretion and lowers plasma phenylalanine” (JCI Insight, 2024).
Several values for one entry are separate records, joined by “and”; a condition that tells them apart may be missing. Equal values may be shown once.

What was measured:
SLC6A19 = biological target: T1, SLC6A19 (Homo sapiens, UniProt Q695T7); assay: SLC6A19 glutamine transport assay in human postmortem intestinal epithelial cells; type: cell-based; conditions: endogenous SLC6A19; geometric mean n = 5, 3 donors; 95% CI 33–197 nM
T1 construct: human intestinal epithelial cells with endogenous expression levels of SLC6A19; tissue AnaBios; host or cells: epithelial cells scraped from distal jejunum of human postmortem intestine (3 male donors)
From the text: Human postmortem intestines from 3 male donors (ages 23–36 years) were provided by AnaBios. Following trimming of excess fat, the distal part of the jejunum was dissected into tissue sections of approximately 100 cm^2 and further processed on ice. These sections contained an estimated approximately 250 million epithelial cells ([28], [29]). Epithelial cells were scraped off each tissue section with a tissue scraper and collected in ice-cold Hank’s balanced salt solution (HBSS). Following centrifuging for 5 min at 300g at 4°C, the supernatant was aspirated and the cell pellet was washed 3–6 times by resuspending in ice-cold HBSS (Thermo Fisher Scientific). […]
Human postmortem epithelial cells isolated from small intestine were centrifuged for 5 minutes at 300g and 4°C and resuspended in Krebs buffer (140 mM sodium chloride, 4.7 mM KCl, 2.5 mM CaCl2, 1.2 mM MgCl2, 11 mM HEPES, 10 mM glucose, pH 7.4) at a density of 7.5 × 10^6 cells/mL. […] The uptake of 2,3,4-^3H–labeled L-glutamine was measured on a Microbeta^2 microplate counter (PerkinElmer).
IC50 values for transport inhibition in cells overexpressing SLC6A19 and TMEM27 were calculated using a 4-parameter logistic regression in Collaborative Drug Discovery (CDD). […] The IC50 values of individual experiments were calculated with a 3- or 4-parameter logistic regression using GraphPad Prism 9. […]

human SLC1A5 = tested on: T2, human SLC1A5; assay: SLC1A5 glutamine transport assay; type: cell-based; conditions: for SLC1A5 transport (Fig S2 curve point): technical replicates
T2 construct: V5; expressed in transfected cells; host or cells: Flp-In T-Rex 293 cells (Thermo Fisher), tetracycline-induced
Description: Supplementary Materials and Methods
Flp-In T-Rex 293 cells (Thermo Fisher) were engineered to induciblyexpress either V5-tagged human SLC1A5, SLC6A8 or SLC7A5 co-expressed with myc-DDK-tagged SLC3A2. Cells expressing SLC 1A5 or SLC6A8 were maintained in either DMEM or DMEM/F12 media supplemented with 10% FBS, 100 U/mL penicillin, 100 μg/mL streptomycin, 200 μg/mL hygromycin, and 10 μg/mL blasticidin. For cells expressing SLC7A5/SLC3A2, the media was additionally supplemented with 300 μg/mL geneticin. All cell lines were maintained at 37°C and 5% CO2. For transport experiments, all cell lines were plated in poly-D-lysine-coated 96-well plates at a density of 35,000 cells/well. One day after plating, expression of SLC1A5, SLC6A8 or SLC7A5 was induced by adding tetracycline at a concentration of 1 μg/mL. Cells were induced for 24 h prior to transport assays.
SLC1A5 glutamine transport assay
Following a 24 h induction with tetracycline, cells were washed with LCIS before JNT -517 was added in 8-point concentration-response diluted in live cell imaging solution. D -serine was used as a positive control (32)at aconcentration of 40 mM and 0.5% DMSO was used as a negative control. Cells were incubated for 20 min at room temperature and then placed on ice for an additional 5 minutes. Then, a mixture of unlabeled L-glutamine (Millipore Sigma) spiked with 4.5 μCi/mL 2,3,4- 3H-labeled L-glutamine (American Radiolabeled Chemicals) was added at a final concentration of 100 μM. After a 5 min incubation on ice, cells were washed once with ice - […]
cold LCIS and lysed in scintillation fluid (PerkinElmer). The uptake of radioactive substrate was measured on a Microbeta2 microplate counter (PerkinElmer). […]

T1 sequence (Q695T7 whole entry): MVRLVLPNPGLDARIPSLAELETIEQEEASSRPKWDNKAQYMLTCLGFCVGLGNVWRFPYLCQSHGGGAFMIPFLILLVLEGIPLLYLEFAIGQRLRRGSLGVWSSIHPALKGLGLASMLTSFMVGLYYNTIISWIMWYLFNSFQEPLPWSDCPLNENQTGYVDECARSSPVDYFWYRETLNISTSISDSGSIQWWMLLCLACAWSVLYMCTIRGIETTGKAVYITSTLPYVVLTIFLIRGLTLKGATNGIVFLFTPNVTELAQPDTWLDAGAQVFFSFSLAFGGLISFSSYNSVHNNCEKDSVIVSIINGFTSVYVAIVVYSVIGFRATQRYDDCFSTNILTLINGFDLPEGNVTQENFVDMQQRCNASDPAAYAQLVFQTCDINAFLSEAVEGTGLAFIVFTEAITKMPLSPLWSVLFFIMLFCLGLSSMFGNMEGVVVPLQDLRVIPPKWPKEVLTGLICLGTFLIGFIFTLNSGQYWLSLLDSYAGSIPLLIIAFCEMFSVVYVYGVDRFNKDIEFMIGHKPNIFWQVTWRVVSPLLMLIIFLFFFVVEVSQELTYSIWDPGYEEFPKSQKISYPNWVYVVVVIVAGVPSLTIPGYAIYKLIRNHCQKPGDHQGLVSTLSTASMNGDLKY
T1 sequence (Q9BYF1 18-805 partner): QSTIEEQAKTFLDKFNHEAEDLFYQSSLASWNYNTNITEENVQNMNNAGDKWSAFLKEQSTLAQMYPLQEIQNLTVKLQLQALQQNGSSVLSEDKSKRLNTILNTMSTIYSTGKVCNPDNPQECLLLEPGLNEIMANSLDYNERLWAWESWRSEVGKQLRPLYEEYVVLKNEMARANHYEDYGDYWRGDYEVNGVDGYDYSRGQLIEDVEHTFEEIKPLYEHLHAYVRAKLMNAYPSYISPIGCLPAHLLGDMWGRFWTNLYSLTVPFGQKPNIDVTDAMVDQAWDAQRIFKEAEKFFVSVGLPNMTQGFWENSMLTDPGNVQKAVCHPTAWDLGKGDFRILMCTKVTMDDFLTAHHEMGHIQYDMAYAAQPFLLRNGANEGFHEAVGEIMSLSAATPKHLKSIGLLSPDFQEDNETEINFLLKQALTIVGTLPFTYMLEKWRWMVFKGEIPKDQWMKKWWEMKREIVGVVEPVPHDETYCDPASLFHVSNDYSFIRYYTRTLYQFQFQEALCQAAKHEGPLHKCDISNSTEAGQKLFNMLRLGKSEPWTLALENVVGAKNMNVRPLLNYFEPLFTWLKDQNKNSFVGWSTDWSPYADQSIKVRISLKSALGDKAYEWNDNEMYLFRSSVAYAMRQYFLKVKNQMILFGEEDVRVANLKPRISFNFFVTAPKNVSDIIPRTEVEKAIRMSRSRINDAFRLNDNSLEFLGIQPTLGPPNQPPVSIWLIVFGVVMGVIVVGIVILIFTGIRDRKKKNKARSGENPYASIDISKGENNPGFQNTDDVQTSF

Question: What does the source list for `NC(=O)N1CCC[C@@H](N(C(=O)NCc2ccc(OC(F)(F)F)cc2F)C2CC2)C1` [JNT-517]?
Answer: IC50 (SLC6A19): 81 nM; SLC1A5 transport (Fig S2 curve point) (human SLC1A5; 0.0160037 uM): 77.6 and 89.2; SLC1A5 transport (Fig S2 curve point) (human SLC1A5; 0.048011 uM): 105 and 120; SLC1A5 transport (Fig S2 curve point) (human SLC1A5; 0.144033 uM): 112 and 122; SLC1A5 transport (Fig S2 curve point) (human SLC1A5; 0.432099 uM): 125 and 131; SLC1A5 transport (Fig S2 curve point) (human SLC1A5; 1.2963 uM): 122 and 116; SLC1A5 transport (Fig S2 curve point) (human SLC1A5; 3.88889 uM): 125 and 121; SLC1A5 transport (Fig S2 curve point) (human SLC1A5; 11.6667 uM): 117 and 115; SLC1A5 transport (Fig S2 curve point) (human SLC1A5; 35 uM): 110 and 117; inhibition of SLC1A5 (human SLC1A5; concentrations up to 35 μM): did not inhibit
